# pKi: −log10 of the molar value.
# Key:
# [1] = test system: rat dopaminergic N27 cells; assay: N27 protection assay against oxidative stress (H2O2 or MPP+; MTT and LDH); type: cell-based; conditions: drug 24 hours before 200 μM H2O2 or 640 μM MPP+
# Summary of the method: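 Protection mode: N27 cells pretreated with drug at various concentrations for 24 hours, then exposed to 200 μM H2O2 or 640 μM MPP+. Recovery mode: cells damaged by H2O2 first, drug applied afterwards. Viability measured by MTT reduction and cytotoxicity by released LDH.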
# [2] = test system: hippocampal neurons; assay: Hippocampal cell loss after pilocarpine-induced SE (FluoroJade B); type: in vivo; conditions: given 30 minutes after the first stage 3 convulsive seizure
# Source text: Pilocarpine-induced SE results in marked cell loss in the hippocampus, when compared to the naïve vehicle-treated rats, as evidenced by increased FluoroJade B fluorescence in the dentate gyrus (DG), CA1, and CA3 cell layers.
# [3] = test system: rats; assay: Water maze, spatial memory and learning in lithium-pilocarpine treated rats; type: in vivo; conditions: pilocarpine-induced SE rats
# Experimental: To assess spatial memory and learning in lithium-pilocarpine treated animals and to identify novel compounds that might ameliorate cognitive deficits and neuronal loss, rats were tested for their ability to navigate a water maze and find a submerged escape platform based only on their ability to remember and assess only extra maze visual cues. Learning can be assessed by quantifying the time that an animal takes to find the platform (latency) over a number of independent trials. Further, this model is sensitive to the hippocampal damage associated with pilocarpine-induced status epilepticus (SE).
# [4] = test system: SMN2 promoter; assay: SMN2 promoter β-lactamase reporter assay in NSC34 motor neuron-like cells; type: cell-based
# Experimental: FIG. 30 illustrates a screen for SMN2 expression of a number of compounds described herein.
# SMN2 promoter activity was measured using NSC34 motor neuron-like cells stably transfected with a β-lactamase (BLA) reporter gene under the control of a 3.4-kilobase fragment of the SMN2 promoter. D156844 was used as a positive control for this assay.
# [5] = test system: NMDA receptors; assay: Electrophysiology, NMDA current; type: cell-based; conditions: at 100 μM [+glycine (1 μM)], holding potential −70 mV
# Source text: The mechanisms of action of many currently marketed anticonvulsant drugs are not fully understood. Although numerous molecular targets exist wherein anticonvulsants may exert an effect, the final common pathway appears to be through modulation of voltage-gated and/or neurotransmitter-gated ion channels. Thus, the common link among the various proposed mechanisms involves the ability of an anticonvulsant to modulate ion channel function. Presently, a number of prototype anticonvulsants are thought to exert their action (at least in part) by reducing sustained, high-frequency repetitive firing of action potentials by modulating voltage-dependent sodium (Na+) channels. The effect of promising candidate substances on voltage-gated Na+ channels can be assessed using state-of-the-art electrophysiological techniques.
# [6] = test system: mice; assay: 6 Hz (minimal clonic seizure) model, mice i.p.; type: in vivo; conditions: Mus musculus, ip; mice, i.p.; read-out: 6 Hz ED50
# [7] = biological target: CYP-450 3A4 (Homo sapiens, UniProt P08684); assay: In vitro human CYP-450 study, 3A4; type: in vitro ADME; conditions: human enzyme
# CYP-450 3A4, sequence (P08684 whole entry): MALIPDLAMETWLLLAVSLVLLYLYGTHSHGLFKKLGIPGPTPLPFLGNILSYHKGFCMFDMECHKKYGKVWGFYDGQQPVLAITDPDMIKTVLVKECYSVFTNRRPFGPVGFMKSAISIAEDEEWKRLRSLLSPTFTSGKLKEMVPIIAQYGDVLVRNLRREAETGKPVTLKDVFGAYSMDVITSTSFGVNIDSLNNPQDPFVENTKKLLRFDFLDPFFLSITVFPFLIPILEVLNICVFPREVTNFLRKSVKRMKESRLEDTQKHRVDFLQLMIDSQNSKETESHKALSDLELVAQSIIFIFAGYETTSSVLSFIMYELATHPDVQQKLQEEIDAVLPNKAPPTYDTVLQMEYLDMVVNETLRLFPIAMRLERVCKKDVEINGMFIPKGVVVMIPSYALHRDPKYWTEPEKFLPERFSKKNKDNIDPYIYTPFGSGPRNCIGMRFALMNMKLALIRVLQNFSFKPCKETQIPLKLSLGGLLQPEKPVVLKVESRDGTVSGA
# Source text: (§1) On the other hand, it is an inhibitor for 2C19, 2D6, 2A6 and 2C9.
# [8] = biological target: CYP-450 2C9 (Homo sapiens, UniProt P11712); assay: In vitro human CYP-450 study, 2C9; type: in vitro ADME; conditions: human enzyme
# CYP-450 2C9, sequence (P11712 whole entry): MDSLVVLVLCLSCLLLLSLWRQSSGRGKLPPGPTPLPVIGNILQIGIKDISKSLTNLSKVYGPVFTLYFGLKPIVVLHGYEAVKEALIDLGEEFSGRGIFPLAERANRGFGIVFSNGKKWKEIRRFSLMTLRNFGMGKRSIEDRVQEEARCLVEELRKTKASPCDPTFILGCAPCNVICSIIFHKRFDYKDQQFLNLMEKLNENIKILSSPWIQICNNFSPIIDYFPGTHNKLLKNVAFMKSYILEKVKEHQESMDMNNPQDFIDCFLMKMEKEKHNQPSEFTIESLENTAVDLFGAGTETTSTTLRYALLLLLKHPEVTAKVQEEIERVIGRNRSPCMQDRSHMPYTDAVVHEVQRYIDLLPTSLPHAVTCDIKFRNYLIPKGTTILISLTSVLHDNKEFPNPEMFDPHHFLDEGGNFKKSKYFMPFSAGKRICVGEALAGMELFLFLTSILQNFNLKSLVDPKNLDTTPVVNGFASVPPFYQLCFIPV
# Source text: as §1
# [9] = test system: CYP2C19, CYP2D6, CYP2A6, CYP2C9; assay: In vitro human CYP-450 study, Ki values over the enzymes; type: in vitro ADME; conditions: range over the enzymes, not assigned to single isoforms
# Source text: as §1
# [10] = test system: rats; assay: Hippocampal Kindled Rats model; type: in vivo; conditions: Rattus norvegicus
Structure (SMILES),neuroprotective effect against H2O2 and MPP+ oxidative stresses (MTT and LDH assays) [1],rats with partial neuroprotection (CA3 and hilar neurons of DG preserved) [2],animals with complete neuroprotection of hippocampal neurons against SE-induced cell death ([2]; rats),spatial learning and memory in the water maze task [3],water maze learning curve in terms of latency [3],"SMN2 promoter assay, particularly strong hits ([4]; NSC34 BLA reporter cells)","Promoter (SMN2 promoter test, summary YES/NO) ([4]; Table 13 summary)",SMN2 promoter activity ([4]; treatment for 19 hours at a concentration of 1 μM),NMDA current (enhancement) [5],ED50 [6] [mg/kg],inhibition of CYP-450 3A4 [7],inhibition of CYP-450 2C9 [8],pKi [9],ED50 [10] [mg/kg]
"C[C@H](CC(N)=O)c1ccc(OC(F)(F)F)cc1 (single isomer, unassigned) [Compound BX, R-(−)-3-(4-Trifluoromethoxy-phenyl)butyramide]",potent dose-dependent neuroprotective effects,2,11/15,preserved spatial learning and memory,much faster learning curve,Particularly strong hits,YES,increased SMN2 promoter activity,–,–,–,–,–,–
"CC(CC(N)=O)c1ccc(OC(F)(F)F)cc1 (racemic) [Compound H, 3-[4-(trifluoromethoxy)-phenyl]butyramide]",–,–,–,–,–,–,–,–,119±7 % of control,55,either no or only a remote possibility of inhibiting,inhibitor,3.76 to 4.54,61

# From patent publication US12486218B2, “Compounds advantageous in the treatment of central nervous system diseases and disorders” (AurimMed Pharma, Inc., priority 2008, dated 2025)
